Measured values reported in PubChem BioAssay (NCI).
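Cultured in 96-well plates, cells were exposed to test compound for 48 hours across five concentrations. The concentration for 50% growth inhibition is given as GI50. At the TGI there is no net growth.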

What was measured:
Experiment in all cases: NCI anticancer screen, dose series, 48 h
[1] = system: SF-539 CNS
[2] = system: SF-295 CNS
[3] = system: RXF 393 renal
[4] = system: EKVX NSCLC
[5] = system: MDA-MB-435
[6] = system: MCF7 breast
[7] = system: M14 melanoma
[8] = system: A498 renal
[9] = system: SNB-19 CNS
[10] = system: SK-OV-3 ovarian
[11] = system: HOP-62 NSCLC
[12] = system: U251 CNS
[13] = system: CCRF-CEM leukemia
[14] = system: OVCAR-8 ovarian
[15] = system: K-562 leukemia
[16] = system: HT29 colon
[17] = system: NCI-H226 lung
[18] = system: SK-MEL-2 melanoma
[19] = system: NCI-H522 lung
[20] = system: MOLT-4 leukemia
[21] = system: SW-620 colon
[22] = system: SR leukemia
[23] = system: HL-60(TB) leukemia
[24] = system: OVCAR-4 ovarian
[25] = system: OVCAR-5 ovarian
[26] = system: A549 NSCLC
[27] = system: UO-31 renal
[28] = system: SNB-75 CNS
[29] = system: DU-145 prostate
[30] = system: PC-3 prostate
[31] = system: NCI-H460 lung
[32] = system: LOX IMVI melanoma
[33] = system: RPMI-8226 leukemia
[34] = system: IGROV1 ovarian
[35] = system: ACHN renal
[36] = system: NCI-H23 lung
[37] = system: SF-268 CNS
[38] = system: COLO 205 colon
[39] = system: UACC-62 melanoma
[40] = system: OVCAR-3 ovarian
[41] = system: HCT-116 colon
[42] = system: KM12 colon
[43] = system: BT-549 breast
[44] = system: MDA-MB-231 breast
[45] = system: HS 578T breast
[46] = system: HCC-2998 colon
[47] = system: SK-MEL-5 melanoma
[48] = system: HOP-92 NSCLC
[49] = system: SN12C renal
[50] = system: T-47D breast
[51] = system: CAKI-1 renal
[52] = system: SK-MEL-28 melanoma
[53] = system: HCT-15 colon
[54] = system: 786-0 renal
[55] = system: NCI/ADR-RES ovarian
[56] = system: UACC-257 melanoma
[57] = system: MALME-3M melanoma
[58] = system: TK-10 renal

## O=[N+]([O-])c1ccc(N/N=C\c2cc(Br)ccc2O)nc1
[1]
  GI50: 0.918 µM
  TGI: 4.16 µM
[2]
  GI50: 1.05 µM
  TGI: 3.11 µM
[3]
  GI50: 2.17 µM
  TGI: 9.95 µM
[4]
  GI50: 2.4 µM
  TGI: 7.69 µM
[5]
  GI50: 1.39 µM
  TGI: > 100 µM
[6]
  GI50: 0.489 µM
  TGI: > 100 µM
[7]
  GI50: 1.22 µM
  TGI: 4.87 µM
[8]
  GI50: 6.11 µM
  TGI: > 100 µM
[9]
  GI50: 1.05 µM
  TGI: 19.8 µM
[10]
  GI50: 1.27 µM
  TGI: 12 µM
[11]
  GI50: 1.59 µM
  TGI: 10.3 µM
[12]
  GI50: 0.736 µM
  TGI: 3.24 µM
[13]
  GI50: 0.314 µM
  TGI: > 100 µM
[14]
  GI50: 0.415 µM
  TGI: 8.86 µM
[15]
  GI50: 0.612 µM
  TGI: > 100 µM
[16]
  GI50: 4.27 µM
  TGI: > 100 µM
[17]
  GI50: 3.11 µM
  TGI: > 100 µM
[18]
  GI50: 4.88 µM
  TGI: > 100 µM
[19]
  GI50: 0.485 µM
  TGI: 3.23 µM
[20]
  GI50: 0.347 µM
  TGI: 23.9 µM
[21]
  GI50: 0.934 µM
  TGI: > 100 µM
[22]
  GI50: 0.463 µM
  TGI: > 100 µM
[23]
  GI50: 0.314 µM
  TGI: > 100 µM
[24]
  GI50: 0.543 µM
  TGI: 4.02 µM
[25]
  GI50: 5.51 µM
  TGI: > 100 µM
[26]
  GI50: 2.84 µM
  TGI: 29.8 µM
[27]
  GI50: 0.376 µM
  TGI: 2.01 µM
[28]
  GI50: 1.32 µM
  TGI: 3.85 µM
[29]
  GI50: 0.912 µM
  TGI: 5.77 µM
[30]
  GI50: 1.67 µM
  TGI: > 100 µM
[31]
  GI50: 0.636 µM
  TGI: 2.72 µM
[32]
  GI50: 0.472 µM
  TGI: 2.37 µM
[33]
  GI50: 0.753 µM
  TGI: > 100 µM
[34]
  GI50: 1.05 µM
  TGI: 3.44 µM
[35]
  GI50: 0.461 µM
  TGI: 2.56 µM
[36]
  GI50: 1.23 µM
  TGI: 10.9 µM
[37]
  GI50: 0.452 µM
  TGI: 4.18 µM
[38]
  GI50: 3.3 µM
  TGI: > 100 µM
[39]
  GI50: 1.86 µM
  TGI: 6.15 µM
[40]
  GI50: 0.525 µM
  TGI: 2.3 µM
[41]
  GI50: 0.451 µM
  TGI: 2.44 µM
[42]
  GI50: 1.23 µM
  TGI: 17.5 µM
[43]
  GI50: 4.95 µM
  TGI: > 100 µM
[44]
  GI50: 0.511 µM
  TGI: 4.76 µM
[45]
  GI50: 2.13 µM
  TGI: 8.93 µM
[46]
  GI50: 3.18 µM
  TGI: > 100 µM
[47]
  GI50: 1.32 µM
  TGI: 10.9 µM
[48]
  GI50: 1.62 µM
  TGI: 6.77 µM
[49]
  GI50: 0.807 µM
  TGI: 12.9 µM
[50]
  GI50: 2.07 µM
  TGI: > 100 µM
[51]
  GI50: 0.459 µM
  TGI: 2.35 µM
[52]
  GI50: 2.05 µM
  TGI: > 100 µM
[53]
  GI50: 0.437 µM
  TGI: > 100 µM

## c1cc(OCCCCCOc2cccc(-c3nc4ccccc4[nH]3)c2)cc(-c2nc3ccccc3[nH]2)c1
[1]
  GI50: 5.08 µM
  TGI: > 100 µM
[2]
  GI50: 1.65 µM
  TGI: 6.57 µM
[4]
  GI50: 2.21 µM
  TGI: 6.97 µM
[54]
  GI50: 2.68 µM
  TGI: > 100 µM
[5]
  GI50: 2.26 µM
  TGI: 6.74 µM
[7]
  GI50: 2.57 µM
  TGI: > 100 µM
[8]
  GI50: 2.61 µM
  TGI: 7.91 µM
[9]
  GI50: 2.85 µM
  TGI: > 100 µM
[10]
  GI50: 2.51 µM
  TGI: 18.1 µM
[11]
  GI50: 3.58 µM
  TGI: > 100 µM
[12]
  GI50: 3.07 µM
  TGI: > 100 µM
[14]
  GI50: 2.53 µM
  TGI: 6.15 µM
[16]
  GI50: 2.87 µM
  TGI: > 100 µM
[17]
  GI50: 1.92 µM
  TGI: > 100 µM
[18]
  GI50: 2.05 µM
  TGI: 5.67 µM
[55]
  GI50: 1.99 µM
  TGI: 7.91 µM
[19]
  GI50: 2.48 µM
  TGI: > 100 µM
[21]
  GI50: 2.87 µM
  TGI: > 100 µM
[24]
  GI50: 2.03 µM
  TGI: > 100 µM
[25]
  GI50: 2.76 µM
  TGI: > 100 µM
[56]
  GI50: 2.87 µM
  TGI: 7.85 µM
[28]
  GI50: 3.4 µM
  TGI: > 100 µM
[29]
  GI50: 3.27 µM
  TGI: > 100 µM
[31]
  GI50: 2.6 µM
  TGI: > 100 µM
[32]
  GI50: 2.19 µM
  TGI: 6.84 µM
[34]
  GI50: 0.324 µM
  TGI: > 100 µM
[35]
  GI50: 2.35 µM
  TGI: 46.2 µM
[37]
  GI50: 5.12 µM
  TGI: > 100 µM
[38]
  GI50: 1.47 µM
  TGI: 2.79 µM
[57]
  GI50: 1.87 µM
  TGI: 5.02 µM
[39]
  GI50: 2.83 µM
  TGI: > 100 µM
[40]
  GI50: 1.53 µM
  TGI: > 100 µM
[58]
  GI50: 3.88 µM
  TGI: > 100 µM
[41]
  GI50: 2.07 µM
  TGI: > 100 µM
[42]
  GI50: 2.69 µM
  TGI: > 100 µM
[43]
  GI50: 1.72 µM
  TGI: 5 µM
[44]
  GI50: 4.08 µM
  TGI: 30.9 µM
[45]
  GI50: 2.56 µM
  TGI: 8.51 µM
[46]
  GI50: 3.32 µM
  TGI: 28 µM
[47]
  GI50: 1.68 µM
  TGI: 3.08 µM
[48]
  GI50: 1.09 µM
  TGI: 4.68 µM
[49]
  GI50: 4.61 µM
  TGI: > 100 µM
[50]
  GI50: 0.458 µM
  TGI: 3.18 µM
[51]
  GI50: 1.79 µM
  TGI: 8.65 µM
[52]
  GI50: 2.82 µM
  TGI: > 100 µM
[53]
  GI50: 2.71 µM
  TGI: > 100 µM
